What follows are compounds tested on Plutella xylostella (assay: Insecticidal test against Plutella xylostella). Conditions: 500 ppm drug solution; Chinese cabbage seedlings with eggs immersed about 30 sec; six days after immersion; 25° C.
Description: Six days after the immersion in the drug solution, the number of surviving insects was examined. […] In triplicate using 10 per plot.
With `Cc1ccccc1C1CC(=O)C(C(=O)Nc2ccc(F)cc2)=C(O)C1` (stereo not shown) [1-1] the “corrected mortality, rating of assessment” value (shortened to “corrected mortality, rating”) was “D or higher”. In the case of `O=C1CC(c2cc(C(F)(F)F)cc(C(F)(F)F)c2)CC(O)=C1C(=O)Nc1ccc(F)cc1` (stereo not shown) [1-2], the “corrected mortality, rating” value is reported as “D or higher”. With `O=C1CC(c2ccc(C(F)(F)F)c(Cl)c2)CC(O)=C1C(=O)Nc1ccc(F)cc1` (stereo not shown) [1-3] the “corrected mortality, rating” value was “D or higher”. With `O=C1CC(c2ccc(C(F)(F)F)cc2)CC(O)=C1C(=O)Nc1ccc(F)cc1` (stereo not shown) [1-6] the “corrected mortality, rating” value was “D or higher”. In the case of `N#Cc1ccc(NC(=O)C2=C(O)CC(c3ccc(C(F)(F)F)cc3)CC2=O)cc1` (stereo not shown) [1-7], the “corrected mortality, rating” value is reported as “D or higher”. With `COc1ccc(NC(=O)C2=C(O)CC(c3ccc(C(F)(F)F)cc3)CC2=O)cc1` (stereo not shown) [1-8] the “corrected mortality, rating” value was “D or higher”. For `O=C1CC(c2ccc(C(F)(F)F)cc2)CC(O)=C1C(=O)NC1CCCCC1` (stereo not shown) [1-11], the “corrected mortality, rating” value was “D or higher”. With `O=C1CC(c2ccc(C(F)(F)F)cc2)CC(O)=C1C(=O)NCc1ccccc1` (stereo not shown) [1-12] the “corrected mortality, rating” value was “D or higher”. In the case of `Cc1ccc(NC(=O)C2=C(O)CC(c3ccc(C(F)(F)F)cc3)CC2=O)cc1` (stereo not shown) [1-15], the “corrected mortality, rating” value is reported as “D or higher”. `Cc1cc(Cl)ccc1NC(=O)C1=C(O)CC(c2ccc(C(F)(F)F)cc2)CC1=O` (stereo not shown) [1-16] was tested, and the “corrected mortality, rating” value was “D or higher”. `O=C1CC(c2ccc(C(F)(F)F)cc2)CC(O)=C1C(=O)Nc1ccc(F)cc1F` (stereo not shown) [1-17] was tested, and the “corrected mortality, rating” value was “D or higher”. With `O=C1CC(c2ccc(C(F)(F)F)cc2)CC(O)=C1C(=O)Nc1c(F)cccc1F` (stereo not shown) [1-18] the “corrected mortality, rating” value was “D or higher”. `O=C1CC(c2ccc(C(F)(F)F)cc2)CC(O)=C1C(=O)Nc1ccc(F)c(F)c1` (stereo not shown) [1-19] was tested, and the “corrected mortality, rating” value was “D or higher”. `O=C1CC(c2ccc(C(F)(F)F)cc2)CC(O)=C1C(=O)Nc1cccc(Cl)c1` (stereo not shown) [1-21] was tested, and the “corrected mortality, rating” value was “D or higher”. For `O=C1CC(c2ccc(C(F)(F)F)cc2)CC(O)=C1C(=O)Nc1ccc(Cl)cc1Cl` (stereo not shown) [1-22], the “corrected mortality, rating” value was “D or higher”. `O=C1CC(c2ccc(C(F)(F)F)cc2)CC(O)=C1C(=O)Nc1c(Cl)cccc1Cl` (stereo not shown) [1-23] was tested, and the “corrected mortality, rating” value was “D or higher”. For `O=C1CC(c2ccc(C(F)(F)F)cc2)CC(O)=C1C(=O)Nc1cccc(C(F)(F)F)c1` (stereo not shown) [1-30], the “corrected mortality, rating” value was “D or higher”. `N#Cc1cccc(NC(=O)C2=C(O)CC(c3ccc(C(F)(F)F)cc3)CC2=O)c1` (stereo not shown) [1-34] was tested, and the “corrected mortality, rating” value was “D or higher”. For `O=C1CC(c2ccc(C(F)(F)F)cc2)CC(O)=C1C(=O)Nc1cccc([N+](=O)[O-])c1` (stereo not shown) [1-35], the “corrected mortality, rating” value was “D or higher”. With `CC(=O)c1ccc(NC(=O)C2=C(O)CC(c3ccc(C(F)(F)F)cc3)CC2=O)cc1` (stereo not shown) [1-36] the “corrected mortality, rating” value was “D or higher”. With `O=C1CC(c2ccc(C(F)(F)F)cc2)CC(O)=C1C(=O)Nc1ccccc1F` (stereo not shown) [1-38, N-(2-fluorophenyl)-5-hydroxy-3-oxo-4′-(trifluoromethyl)-1,2,3,6-tetrahydro-[1,1′-biphenyl]-4-carboxamide] the “corrected mortality, rating” value was “D or higher”. `O=C1CC(c2ccc(C(F)(F)F)cc2)CC(O)=C1C(=O)Nc1cccc2ccccc12` (stereo not shown) [1-39] was tested, and the “corrected mortality, rating” value was “D or higher”. For `O=C1CC(c2ccc(C(F)(F)F)cc2)CC(O)=C1C(=O)Nc1cccs1` (stereo not shown) [1-40], the “corrected mortality, rating” value was “D or higher”. `O=C1CC(c2ccc(C(F)(F)F)cc2)CC(O)=C1C(=O)Nc1cccc(F)c1` (stereo not shown) [1-43] was tested, and the “corrected mortality, rating” value was “D or higher”. In the case of `O=C1CC(c2ccc(C(F)(F)F)cc2)CC(O)=C1C(=O)Nc1c(F)c(F)c(F)c(F)c1F` (stereo not shown) [1-45], the “corrected mortality, rating” value is reported as “D or higher”. In the case of `CSc1ccc(NC(=O)C2=C(O)CC(c3ccc(C(F)(F)F)cc3)CC2=O)cc1` (stereo not shown) [1-49], the “corrected mortality, rating” value is reported as “D or higher”. For `O=C1CC(c2ccc(C(F)(F)F)cc2)CC(O)=C1C(=O)Nc1ccc([S+]([O-])C(F)(F)F)cc1` (stereo not shown) [1-52], the “corrected mortality, rating” value was “D or higher”. With `O=C1CC(c2ccc(C(F)(F)F)cc2)CC(O)=C1C(=O)Nc1ccc(S(=O)(=O)C(F)(F)F)cc1` (stereo not shown) [1-53] the “corrected mortality, rating” value was “D or higher”. In the case of `O=C1CC(c2ccc(C(F)(F)F)cc2)CC(O)=C1C(=O)Nc1ccc(Oc2ccccc2)cc1` (stereo not shown) [1-54], the “corrected mortality, rating” value is reported as “D or higher”. `O=C1CC(c2ccc(C(F)(F)F)cc2)CC(O)=C1C(=O)Nc1ccc2c(c1)OCO2` (stereo not shown) [1-55] was tested, and the “corrected mortality, rating” value was “D or higher”. For `N#Cc1ccc(C2CC(=O)C(C(=O)Nc3ccc(F)cc3)=C(O)C2)cc1` (stereo not shown) [1-61], the “corrected mortality, rating” value was “D or higher”. For `NC(=O)c1ccc(C2CC(=O)C(C(=O)Nc3ccc(F)cc3)=C(O)C2)cc1` (stereo not shown) [1-62], the “corrected mortality, rating” value was “D or higher”. For `Cc1ccc(C2CC(=O)C(C(=O)Nc3ccc(F)cc3)=C(O)C2)cc1` (stereo not shown) [1-63], the “corrected mortality, rating” value was “D or higher”. With `O=C1CC(c2ccc(OC(F)(F)F)cc2)CC(O)=C1C(=O)Nc1ccc(F)cc1` (stereo not shown) [1-65] the “corrected mortality, rating” value was “D or higher”. In the case of `O=C1CC(c2ccc(SC(F)(F)F)cc2)CC(O)=C1C(=O)Nc1ccc(F)cc1` (stereo not shown) [1-66], the “corrected mortality, rating” value is reported as “D or higher”. For `O=C1CC(c2ccc(C(F)(F)F)nc2)CC(O)=C1C(=O)Nc1ccc(C(F)(F)F)cc1` (stereo not shown) [1-69], the “corrected mortality, rating” value was “D or higher”. For `O=C1CC(c2ccc(C(F)(F)F)nc2)CC(O)=C1C(=O)Nc1ccc(OC(F)(F)F)cc1` (stereo not shown) [1-70], the “corrected mortality, rating” value was “D or higher”. With `O=C1CC(c2ccc(C(F)(F)F)nc2)CC(O)=C1C(=O)Nc1ccc(Cl)cc1` (stereo not shown) [1-71] the “corrected mortality, rating” value was “D or higher”. For `O=C1CC(c2cccs2)CC(O)=C1C(=O)Nc1cccs1` (stereo not shown) [1-75], the “corrected mortality, rating” value was “D or higher”. For `Cc1ccc(C2CC(=O)C(C(=O)Nc3ccc(F)cc3)=C(O)C2)s1` (stereo not shown) [1-76], the “corrected mortality, rating” value was “D or higher”. With `O=C1CC(c2ccc(C(F)(F)F)c(Cl)c2)CC(O)=C1C(=S)Nc1ccc(C(F)(F)F)cc1` (stereo not shown) [1-77] the “corrected mortality, rating” value was “D or higher”. `O=C1CC(c2ccc(C(F)(F)F)cc2)CC(O)=C1C(=S)Nc1ccc(F)cc1` (stereo not shown) [1-81] was tested, and the “corrected mortality, rating” value was “D or higher”. For `O=C1CC(c2ccc(C(F)(F)F)cc2)CC(O)=C1C(=S)Nc1ccccc1` (stereo not shown) [1-93], the “corrected mortality, rating” value was “D or higher”. For `O=C1CC(c2ccc(C(F)(F)F)cc2)CC(O)=C1C(=S)Nc1ccccc1F` (stereo not shown) [1-94], the “corrected mortality, rating” value was “D or higher”. In the case of `O=C1CC(c2ccc(C(F)(F)F)cc2)CC(O)=C1C(=S)Nc1cccc(F)c1` (stereo not shown) [1-95], the “corrected mortality, rating” value is reported as “D or higher”. `O=C1CC(c2ccc(C(F)(F)F)cc2)CC(O)=C1C(=S)Nc1cccc(C(F)(F)F)c1` (stereo not shown) [1-99] was tested, and the “corrected mortality, rating” value was “D or higher”. In the case of `N#Cc1ccc(NC(=S)C2=C(O)CC(c3ccc(C(F)(F)F)cc3)CC2=O)cc1` (stereo not shown) [1-100], the “corrected mortality, rating” value is reported as “D or higher”. With `O=C1CC(c2ccc(C(F)(F)F)cc2)CC(O)=C1C(=S)Nc1ccc(F)cn1` (stereo not shown) [1-108] the “corrected mortality, rating” value was “D or higher”. For `CC1(c2ccc(C(F)(F)F)cc2)CC(=O)C(C(=S)Nc2ccc(F)cc2)=C(O)C1` (stereo not shown) [1-140], the “corrected mortality, rating” value was “D or higher”. With `O=C1CC(c2ccc(C(F)(F)F)cc2)CC(O)=C1C(=O)Nc1ccc(C(F)(F)F)cn1` (stereo not shown) [1-142] the “corrected mortality, rating” value was “D or higher”. In the case of `O=C1CC(c2ccc(C(F)(F)F)cc2)CC(O)=C1C(=O)NC1CC1` (stereo not shown) [1-144], the “corrected mortality, rating” value is reported as “D or higher”. For `O=C1CC(c2ccc(Cl)s2)CC(O)=C1C(=O)Nc1ccc(F)cc1` (stereo not shown) [1-145], the “corrected mortality, rating” value was “D or higher”.
